Tests used:
[1] = tested on: human coagulation factor XI protein; assay: In vivo activity in AAV-FXI model mice, serum FXI protein by ELISA; conditions: AAV-FXI mice (C57BL/6 male), single subcutaneous 3 mg/kg
Protocol: 4-6 week old C57BL/6 male mice were injected via the tail vein with 1 × 10^11 vg of AAV8-FXI (WZ Biosciences). On day 28 after modeling, mice with an hFXI protein content of greater than 100 ng/mL were selected. The mice were randomly divided into groups based on body weight and were injected with 3 mg/kg of the dsRNA ligand conjugate of the present application (amount calculated based on siRNA only) on day 0. Orbital blood was collected on day 7, day 14, day 35, and day 56. Serum was separated, and the content of the coagulation factor XI protein in the serum at each time point was measured using a Human Coagulation Factor XI ELISA kit (Thermo, Cat. No. EH118RB).
(§1) The coagulation factor XI protein inhibition rate was calculated according to the following equation: [formula]
The content of the coagulation factor XI protein in animal serum was measured before and on day 7, day 14, day 35, and day 56 after a single subcutaneous administration of the dsRNA ligand conjugate of the present application at a dose of 3 mg/kg to AAV-FXI mice (see Table 15). […] Table 15. In vivo experimental design

[2] = tested on: human coagulation factor XI protein; assay: In vivo activity in human coagulation factor XI model mice (Experimental Example 3), plasma FXI protein by ELISA; conditions: humanized mice
Protocol: The humanized mice used in this experimental example were purchased from Cyagen Biosciences Co., Ltd. The humanized mice were randomly divided into groups, with 4 mice per group. The compound and PBS control (pH = 7.2) were administered to each group of mice, respectively. The day of the first administration was designated as day 0 of the experiment. The corresponding compound solutions were administered via a single subcutaneous injection based on animal body weight, at administration doses of 1 mg/kg and 5 mg/kg. PBS control mice were each administered PBS, with an administration volume of 10 mL/kg body weight. Orbital blood was collected before administration and on day 7, day 14, day 28, day 42, and day 63 after administration. Plasma was separated, and the content of the coagulation factor XI protein in the plasma was measured at each time point.
About 165 µL of blood was collected from the orbital veins for plasma collection. A 3.8% trisodium citrate anticoagulant was added to the whole blood in a volume ratio of 1:9 (anticoagulant:[…], v/v), and the mixture was centrifuged at 3000 rpm at 20 °C for 15 min to collect plasma. The content of the coagulation factor XI protein in the plasma obtained from the above groups of mice (test groups administered the compound and PBS control group) was measured using a Human Coagulation Factor XI ELISA kit (Sigma, Cat. No. RAB1385-1KT).
as §1
Table 11 lists the measurement of FXI protein content in animal plasma before and on day 7, day 14, day 28, day 42, and day 63 after a single subcutaneous administration of siRNA ligand conjugates (TD01M01L01, TD02M01L01) at doses of 1 mg/kg and 5 mg/kg to humanized homozygous mice. […] Table 11. In vivo experimental design

[3] = tested on: human coagulation factor XI protein; assay: In vivo activity in human coagulation factor XI model mice (Experimental Example 4), FXI protein by ELISA; conditions: female humanized homozygous mice, single subcutaneous 3 mg/kg
Protocol: The humanized mice used in this experimental example were purchased from Cyagen Biosciences Co., Ltd. The female humanized homozygous mice were randomly divided into groups, with 4 mice per group. The compound and PBS control (pH = 7.2) were administered to each group of mice, respectively. The day of the first administration was designated as day 0 of the experiment. The corresponding compound solutions were administered via a single subcutaneous injection based on animal body weight, at an administration dose of 3 mg/kg. PBS control mice were each administered PBS, with an administration volume of 10 mL/kg body weight. Orbital blood was collected before administration and on day 3, day 7, day 14, day 21, day 28, day 42, day 56, and day 70 after administration. Serum was separated, and the content of the coagulation factor XI protein in the serum at each time point was measured using a Human Coagulation Factor XI ELISA kit (Thermo, Batch No. 2350072722, Cat. No. EH118RB).
as §1
Table 13 lists the measurement of coagulation factor XI protein content in animal plasma before and on day 3, day 7, day 14, day 21, day 28, day 42, day 56, and day 70 after a single subcutaneous administration of siRNA ligand conjugates at a dose of 3 mg/kg to humanized homozygous mice. […] Table 13. In vivo experimental design

[4] = single subcutaneous 1 mg/kg, D7
[5] = single subcutaneous 1 mg/kg, D14
[6] = single subcutaneous 1 mg/kg, D28
[7] = single subcutaneous 1 mg/kg, D42
[8] = single subcutaneous 1 mg/kg, D63
[9] = single subcutaneous 5 mg/kg, D7
[10] = single subcutaneous 5 mg/kg, D14
[11] = single subcutaneous 5 mg/kg, D28
[12] = single subcutaneous 5 mg/kg, D42
[13] = single subcutaneous 5 mg/kg, D63

Substance	Relative inhibition rate (%) of FXI protein ([1]; D7) [%]	Relative inhibition rate (%) of FXI protein ([1]; D14) [%]	Relative inhibition rate (%) of FXI protein [2, 4] [%]	Relative inhibition rate (%) of FXI protein [2, 5] [%]	Relative inhibition rate (%) of FXI protein [2, 6] [%]	Relative inhibition rate (%) of FXI protein [2, 7] [%]	Relative inhibition rate (%) of FXI protein [2, 8] [%]	Relative inhibition rate (%) of FXI protein [2, 9] [%]	Relative inhibition rate (%) of FXI protein [2, 10] [%]	Relative inhibition rate (%) of FXI protein [2, 11] [%]	Relative inhibition rate (%) of FXI protein [2, 12] [%]	Relative inhibition rate (%) of FXI protein [2, 13] [%]	further results
TD05M02L01: dsRNA ligand conjugate: TD05M02 with L01 (GalNAc) ligand at 3' end of sense strand SEQ ID NO 47; antisense SEQ ID NO 48 (sense CTTTTCAGGATGATTTTCT; antisense AGAAAATCATCCTGAAAAGAC; GalNAc L01 ligand at sense 3' end, 2'-OMe/2'-F, pattern not given here)	96.3	96.6	–	–	–	–	–	–	–	–	–	–	Relative inhibition rate (%) of FXI protein ([1]; D35): 81.7%; Relative inhibition rate (%) of FXI protein ([1]; D56): 51.0%
TD01M01L01: siRNA ligand conjugate: TD01M01 with L01 (GalNAc) ligand at 3' end of sense strand SEQ ID NO 29; antisense SEQ ID NO 30 (sense GATCTCCAACTAAAATACT; antisense AGTATTTTAGTTGGAGATCCG; GalNAc L01 ligand at sense 3' end, 2'-OMe/2'-F, pattern not given here)	–	–	58.1	67.5	58.6	68.8	41.3	90.5	92.8	89.5	91.8	74.4	–
TD02M01L01: siRNA ligand conjugate: TD02M01 with L01 (GalNAc) ligand at 3' end of sense strand SEQ ID NO 33; antisense SEQ ID NO 34 (sense GGATGATTTTCTTATATCA; antisense TGATATAAGAAAATCATCCTG; GalNAc L01 ligand at sense 3' end, 2'-OMe/2'-F, pattern not given here)	–	–	61.5	63.9	49.2	52.9	41.1	91.8	94.0	87.8	89.4	69.0	–
TD01M02L01: siRNA ligand conjugate: TD01M02 with L01 (GalNAc) ligand at 3' end of sense strand SEQ ID NO 31; antisense SEQ ID NO 32 (sense GATCTCCAACTAAAATACT; antisense AGTATTTTAGTTGGAGATCCG; GalNAc L01 ligand at sense 3' end, 2'-OMe/2'-F, pattern not given here)	–	–	65.1	67.4	62.5	69.3	44.6	90.9	93.1	92.4	93.1	76.6	Relative inhibition rate (%) of FXI protein ([3]; D3): 69.3%; Relative inhibition rate (%) of FXI protein ([3]; D7): 88.5%; Relative inhibition rate (%) of FXI protein ([3]; D14): 91.8%; Relative inhibition rate (%) of FXI protein ([3]; D21): 91.7%; Relative inhibition rate (%) of FXI protein ([3]; D28): 91.3%; Relative inhibition rate (%) of FXI protein ([3]; D42): 86.1%; Relative inhibition rate (%) of FXI protein ([3]; D56): 76.1%; Relative inhibition rate (%) of FXI protein ([3]; D70): 68.9%
TD12M02L01: dsRNA ligand conjugate: TD12M02 with L01 (GalNAc) ligand at 3' end of sense strand SEQ ID NO 75; antisense SEQ ID NO 76 (sense TGATTTTCTTATATCAAGT; antisense ACTTGATATAAGAAAATCATC; GalNAc L01 ligand at sense 3' end, 2'-OMe/2'-F, pattern not given here)	88.4	88.0	–	–	–	–	–	–	–	–	–	–	–

Source: EP4772634A1, “DOUBLE-STRANDED RNA TARGETING COAGULATION FACTOR XI” (Chia Tai Tianqing Pharmaceutical Group Co., Ltd., priority 2023, dated 2025)
